{
  "source": "patent US20250144131A1",
  "about": "“POLYSACCHARIDE COMPOUND WITH A DEFINED MOLECULAR STRUCTURE FOR THE TREATMENT OF PULMONARY FIBROSIS” (SHENZHEN YANDAI INVESTMENT CO., LTD, priority 2023, published 2025)",
  "type_in_all_cases": "in vivo, C57BL/6J mice",
  "key": {"[1]": {"system": "bleomycin-induced pulmonary fibrosis model", "assay": "Lung function test (EMKA WBP) in bleomycin-induced pulmonary fibrosis mice", "method": "(§1) Fifty male SPF C57BL/6J mice were randomized by weight into the normal control group, model control group, positive control group, GLP-4 low-dose group, and GLP-4 high-dose group, with 10 animals in each group. Ten animals not subjected to modeling served as the normal control group. The remaining animals were modeled by administering bleomycin via tracheal injection at 5 mg/kg, 0.1 mL per mouse, one-time administration. Starting on day 7 post-modeling, the study drug, positive drug, or solvent was administered orally at 10 mL/kg once daily for 21 consecutive days. During the experimental period, daily observations were made for each group's food intake, activity, breathing, and responsiveness; pulmonary function was tested before administration and about 24 h after the last dose. After completing pulmonary function tests, the mice were euthanized for pathological sampling.\nLung function: Lung function in mice was measured using the EMKA WBP animal lung function assessment system both before administration and approximately 24 h after the last dose. Measurements included inspiratory (expiratory) duration, maximum inspiratory (expiratory) volume, tidal volume, expiratory volume, relaxation time, minute ventilation, respiratory rate, end inspiratory (expiratory) pause, bronchoconstriction parameters, 50% expiratory flow, alveolar ventilation, and number of breaths."}, "[2]": {"system": "bleomycin-induced pulmonary fibrosis model", "assay": "General behavioral observation in bleomycin-induced pulmonary fibrosis mice", "details": "oral 21 days, pirfenidone 225 mg/kg, GLP-4 low-dose 200 mg/kg", "method": "as §1\nGeneral behavioral observation: During the trial period, daily observations were made on the animals' consumption, activity, breathing, and responsiveness."}, "[3]": {"system": "bleomycin-induced pulmonary fibrosis model", "assay": "Pulmonary histopathology (H&E, pathology scores) in bleomycin-induced pulmonary fibrosis mice", "method": "as §1\nPulmonary histopathology: Following lung function tests, mice were euthanized, and a laparotomy was performed. Whole-body perfusion was conducted using saline through the portal vein followed by thoracotomy and perfusion-fixation with 10% formaldehyde solution for 5 min. The trachea was then ligated, the lungs were harvested, and further fixed in formalin solution for 48 h. Hematoxylin and eosin (H&E) staining was performed to observe pathological changes."}, "[4]": {"details": "21 days post-dosing, pirfenidone 225 mg/kg po daily"}, "[5]": {"details": "prior to administration (one week post-modeling), pirfenidone 225 mg/kg group"}},
  "data": [
    {"compound": "Cc1ccc(=O)n(-c2ccccc2)c1", "note": "[positive control, pirfenidone]", "values": [
      {"measurement": "AV (alveolar ventilation)", "setting": "[1]; [4]", "value": "119.87 ± 38.33", "unit": "mL"},
      {"measurement": "EEP (end expiratory pause)", "setting": "[1]; [4]", "value": "5.89 ± 0.57", "unit": "ms"},
      {"measurement": "EF50 (50% expiratory flow)", "setting": "[1]; [4]", "value": "5.31 ± 0.91", "unit": "mL/s"},
      {"measurement": "EIP (end inspiratory pause)", "setting": "[1]; [4]", "value": "18.83 ± 9.94", "unit": "ms"},
      {"measurement": "EV (expiratory volume)", "setting": "[1]; [4]", "value": "0.14 ± 0.01", "unit": "mL"},
      {"measurement": "MV (minute ventilation)", "setting": "[1]; [4]", "value": "64.98 ± 11.84", "unit": "mL"},
      {"measurement": "PEF (peak expiratory flow)", "setting": "[1]; [4]", "value": "5.59 ± 0.86", "unit": "mL/s"},
      {"measurement": "PIF (peak inspiratory flow)", "setting": "[1]; [4]", "value": "4.49 ± 0.75", "unit": "mL/s"},
      {"measurement": "Penh (bronchoconstriction parameters)", "setting": "[1]; [4]", "value": "0.56 ± 0.22"},
      {"measurement": "RT (relaxation time)", "setting": "[1]; [4]", "value": "57.72 ± 22.68", "unit": "ms"},
      {"measurement": "TV (tidal volume)", "setting": "[1]; [4]", "value": "0.14 ± 0.01", "unit": "mL"},
      {"measurement": "Te (expiratory duration)", "setting": "[1]; [4]", "value": "73.20 ± 22.54", "unit": "ms"},
      {"measurement": "Ti (inspiratory duration)", "setting": "[1]; [4]", "value": "79.85 ± 12.82", "unit": "ms"},
      {"measurement": "n (number of breaths)", "setting": "[1]; [4]", "value": "40.22 ± 17.53"},
      {"measurement": "Lung function indices compared to the model control group", "setting": "[1]; bleomycin mice, 21 days post-dosing, pirfenidone 225 mg/kg, GLP-4 low-dose 200 mg/kg", "value": "significant increases in PIF, PEF, TV, EV, MV, EF50, and alveolar ventilation (AV)"},
      {"measurement": "AV (alveolar ventilation)", "setting": "[1]; [5]", "value": "70.49 ± 10.76", "unit": "mL"},
      {"measurement": "EEP (end expiratory pause)", "setting": "[1]; [5]", "value": "5.70 ± 0.71", "unit": "ms"},
      {"measurement": "EF50 (50% expiratory flow)", "setting": "[1]; [5]", "value": "5.68 ± 0.95", "unit": "mL/s"},
      {"measurement": "EIP (end inspiratory pause)", "setting": "[1]; [5]", "value": "62.63 ± 33.56", "unit": "ms"},
      {"measurement": "EV (expiratory volume)", "setting": "[1]; [5]", "value": "0.15 ± 0.02", "unit": "mL"},
      {"measurement": "MV (minute ventilation)", "setting": "[1]; [5]", "value": "52.78 ± 12.68", "unit": "mL"},
      {"measurement": "PEF (peak expiratory flow)", "setting": "[1]; [5]", "value": "5.94 ± 0.94", "unit": "mL/s"},
      {"measurement": "PIF (peak inspiratory flow)", "setting": "[1]; [5]", "value": "4.63 ± 0.69", "unit": "mL/s"},
      {"measurement": "Penh (bronchoconstriction parameters)", "setting": "[1]; [5]", "value": "0.44 ± 0.15"},
      {"measurement": "RT (relaxation time)", "setting": "[1]; [5]", "value": "105.6 ± 46.61", "unit": "ms"},
      {"measurement": "TV (tidal volume)", "setting": "[1]; [5]", "value": "0.15 ± 0.02", "unit": "mL"},
      {"measurement": "Te (expiratory duration)", "setting": "[1]; [5]", "value": "120.91 ± 48.12", "unit": "ms"},
      {"measurement": "Ti (inspiratory duration)", "setting": "[1]; [5]", "value": "109.26 ± 23.25", "unit": "ms"},
      {"measurement": "n (number of breaths)", "setting": "[1]; [5]", "value": "23.82 ± 4.54"},
      {"measurement": "General behavior compared to the model control group", "setting": "[2]", "value": "noticeable improvements in appetite, activity, breathing, responsiveness, and fur condition"},
      {"measurement": "Fibrotic tissue proliferation", "setting": "[3]; bleomycin mice, H&E, pirfenidone 225 mg/kg, GLP-4 low-dose 200 mg/kg", "value": "no fibrotic tissue proliferation"},
      {"measurement": "Pathology score", "setting": "[3]; lung, pirfenidone 225 mg/kg po daily, 21 days", "value": "6.22 ± 3.31"}
    ]}
  ]
}
